According to patent US11034685B2, “Aminopyridine derivatives as TAM family kinase inhibitors” (SignalChem Lifesciences Corporation, priority 2013, dated 2021):

Assays:
Assay type in all cases: biochemical
human Axl (473-end) = biological target: T1, human Axl (473-end) (Homo sapiens, UniProt P30530); assay: Kinase enzymatic activity assay ([33P]-ATP phosphate transfer), Axl; conditions: inhibitory activity on Axl; class symbols
T1 construct: GST (N); made in house; host or cells: Sf9 insect cells (baculovirus)
T1 sequence (P30530 473-894 limits assumed): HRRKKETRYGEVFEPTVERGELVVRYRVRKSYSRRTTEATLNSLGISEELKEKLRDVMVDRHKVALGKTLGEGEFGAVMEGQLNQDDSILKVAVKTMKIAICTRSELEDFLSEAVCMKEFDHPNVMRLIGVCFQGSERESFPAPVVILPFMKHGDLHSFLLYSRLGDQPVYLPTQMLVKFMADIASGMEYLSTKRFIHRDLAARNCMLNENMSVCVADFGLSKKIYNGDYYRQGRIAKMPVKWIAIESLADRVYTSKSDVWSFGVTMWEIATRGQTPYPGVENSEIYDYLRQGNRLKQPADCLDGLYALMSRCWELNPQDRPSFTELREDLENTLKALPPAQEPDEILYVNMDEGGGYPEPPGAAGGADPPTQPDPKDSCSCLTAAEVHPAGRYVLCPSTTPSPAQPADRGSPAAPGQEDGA
In short: (§1)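 Kinases were N-terminal GST-tagged constructs expressed in Sf9 cells, with poly(Glu:Tyr 4:1) as substrate. Reactions ran in MOPS buffer pH 7.2 with MgCl2 and [33P]-ATP (250 μM cocktail stock) for 30 min at room temperature. Filter-bound radioactivity gave % inhibition, and IC50 was taken from serial dilutions.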

human Mer (578-872) = biological target: T2, human Mer (578-872) (Homo sapiens, UniProt Q12866); assay: Kinase enzymatic activity assay ([33P]-ATP phosphate transfer), Mer; conditions: inhibitory activity on Mer; class symbols
T2 construct: GST (N); made in house; host or cells: Sf9 insect cells (baculovirus)
T2 sequence (Q12866 578-872): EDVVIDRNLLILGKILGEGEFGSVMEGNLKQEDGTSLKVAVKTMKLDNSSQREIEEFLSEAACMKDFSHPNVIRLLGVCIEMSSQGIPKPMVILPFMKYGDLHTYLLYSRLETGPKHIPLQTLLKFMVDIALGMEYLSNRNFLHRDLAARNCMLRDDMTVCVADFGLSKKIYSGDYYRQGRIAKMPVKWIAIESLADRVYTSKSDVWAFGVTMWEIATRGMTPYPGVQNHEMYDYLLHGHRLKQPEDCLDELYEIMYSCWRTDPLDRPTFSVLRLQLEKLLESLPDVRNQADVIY
In short: as §1

[1] = biological target: T3, Recombinant human Tyro3 (455-end) (Homo sapiens, UniProt Q06418); assay: Kinase enzymatic activity assay ([33P]-ATP phosphate transfer), Tyro3; conditions: inhibitory activity on Tyro3; class symbols
T3 construct: GST (N); made in house; host or cells: Sf9 insect cells (baculovirus)
T3 sequence (Q06418 455-890 limits assumed): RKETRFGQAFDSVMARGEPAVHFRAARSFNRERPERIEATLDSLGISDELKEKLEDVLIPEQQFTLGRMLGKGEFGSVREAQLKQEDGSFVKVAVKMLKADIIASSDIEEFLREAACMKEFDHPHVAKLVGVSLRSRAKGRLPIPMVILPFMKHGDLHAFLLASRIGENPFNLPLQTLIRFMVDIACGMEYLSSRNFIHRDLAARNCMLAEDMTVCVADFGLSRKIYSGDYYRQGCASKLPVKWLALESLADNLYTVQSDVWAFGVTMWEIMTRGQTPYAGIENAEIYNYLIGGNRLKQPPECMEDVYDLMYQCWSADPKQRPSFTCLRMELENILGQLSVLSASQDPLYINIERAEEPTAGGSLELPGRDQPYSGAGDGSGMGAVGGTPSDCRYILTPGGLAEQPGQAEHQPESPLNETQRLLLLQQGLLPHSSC
In short: as §1

Row | IC50 (human Axl (473-end)) | IC50 (human Mer (578-872)) | IC50 [1] | SMILES
1 | > 10000 nM | > 10000 nM | > 10000 nM | Nc1ncc(-c2cnn(C3CCOCC3)c2)cc1-c1ncc(-c2ccc(Cl)cc2)o1
2 | < 500 nM | < 500 nM | < 500 nM | Nc1ncc(-c2cnn(C3CCNCC3)c2)cc1-c1nnc(-c2nc(C(F)(F)F)cs2)o1 [5-(1-(piperidin-4-yl)-1H-pyrazol-4-yl)-3-(5-(4-(trifluoromethyl)thiazol-2-yl)-1,3,4-oxadiazol-2-yl)pyridin-2-amine]
3 | < 500 nM | 1000 to 10000 nM | < 500 nM | CC(C)(C)C(=O)N1CCC(n2cc(-c3cnc(N)c(-c4ncc(-c5cccc(Cl)c5)o4)c3)cn2)CC1 [1-(4-(4-(6-amino-5-(5-(3-chlorophenyl)oxazol-2-yl)pyridin-3-yl)-1H-pyrazol-1-yl)piperidin-1-yl)-2,2-dimethylpropan-1-one]
4 | < 500 nM | < 500 nM | < 500 nM | Nc1ncc(-c2cnn(C3CCNCC3)c2)cc1-c1nnc(-c2ccc(F)cc2)o1 [3-(5-(4-fluorophenyl)-1,3,4-oxadiazol-2-yl)-5-(1-(piperidin-4-yl)-1H-pyrazol-4-yl)pyridin-2-amine]
5 | < 500 nM | < 500 nM | < 500 nM | CCN1CCC(n2cc(-c3cnc(N)c(-c4nc(-c5c(Cl)cccc5Cl)no4)c3)cn2)CC1 [3-(3-(2,6-dichlorophenyl)-1,2,4-oxadiazol-5-yl)-5-(1-(1-ethylpiperidin-4-yl)-1H-pyrazol-4-yl)pyridin-2-amine]
6 | < 500 nM | 500 to 1000 nM | < 500 nM | Nc1ncc(-c2cn[nH]c2)cc1-c1nnc(-c2ccccc2)o1 [3-(5-phenyl-1,3,4-oxadiazol-2-yl)-5-(1H-pyrazol-4-yl)pyridin-2-amine]
7 | < 500 nM | < 500 nM | < 500 nM | Nc1ncc(-c2cnn(C3CCNCC3)c2)cc1-c1ncc(-c2ccccc2)o1 [3-(5-phenyloxazol-2-yl)-5-(1-(piperidin-4-yl)-1H-pyrazol-4-yl)pyridin-2-amine]
8 | < 500 nM | < 500 nM | < 500 nM | Nc1ncc(-c2cnn(C3CCNCC3)c2)cc1-c1nnc(-c2ccccn2)o1 [5-(1-(piperidin-4-yl)-1H-pyrazol-4-yl)-3-(5-(pyridin-2-yl)-1,3,4-oxadiazol-2-yl)pyridin-2-amine]
9 | < 500 nM | < 500 nM | < 500 nM | CN1CCC(n2cc(-c3cnc(N)c(-c4ncc(-c5cccc(Cl)c5)o4)c3)cn2)CC1 [3-(5-(3-chlorophenyl)oxazol-2-yl)-5-(1-(1-methylpiperidin-4-yl)-1H-pyrazol-4-yl)pyridin-2-amine]
10 | < 500 nM | 1000 to 10000 nM | < 500 nM | Nc1ncc(-c2cnn(C3CCN(C(=O)Cc4ccccc4)CC3)c2)cc1-c1ncc(-c2cccc(Cl)c2)o1 [1-(4-(4-(6-amino-5-(5-(3-chlorophenyl)oxazol-2-yl)pyridin-3-yl)-1H-pyrazol-1-yl)piperidin-1-yl)-2-phenylethanone]
11 | < 500 nM | < 500 nM | < 500 nM | Nc1ncc(-c2cnn(C3CCNCC3)c2)cc1-c1noc(-c2ccccc2)n1 [3-(5-phenyl-1,2,4-oxadiazol-3-yl)-5-(1-(piperidin-4-yl)-1H-pyrazol-4-yl)pyridin-2-amine]
12 | < 500 nM | < 500 nM | < 500 nM | Nc1ncc(-c2cnn(C3CCOCC3)c2)cc1-c1nnc(-c2ccccc2)o1 [3-(5-phenyl-1,3,4-oxadiazol-2-yl)-5-(1-(tetrahydro-2H-pyran-4-yl)-1H-pyrazol-4-yl)pyridin-2-amine]
13 | < 500 nM | < 500 nM | < 500 nM | Nc1ncc(-c2cnn(C3CCNCC3)c2)cc1-c1cc(-c2ccccc2)on1 [3-(5-phenylisoxazol-3-yl)-5-(1-(piperidin-4-yl)-1H-pyrazol-4-yl)pyridin-2-amine]
14 | < 500 nM | 1000 to 10000 nM | 500 to 1000 nM | Nc1ncc(-c2cnn(C3CCOCC3)c2)cc1-c1noc(-c2ccccc2)n1 [3-(5-phenyl-1,2,4-oxadiazol-3-yl)-5-(1-(tetrahydro-2H-pyran-4-yl)-1H-pyrazol-4-yl)pyridin-2-amine]
15 | < 500 nM | 500 to 1000 nM | < 500 nM | Nc1ncc(-c2cnn(C3CCNCC3)c2)cc1-c1nnc(-c2cnccn2)o1 [5-(1-(piperidin-4-yl)-1H-pyrazol-4-yl)-3-(5-(pyrazin-2-yl)-1,3,4-oxadiazol-2-yl)pyridin-2-amine]
16 | < 500 nM | 1000 to 10000 nM | 1000 to 10000 nM | CC(C)(C)OC(=O)N1CCC(n2cc(-c3cnc(N)c(-c4nnc(-c5ccccn5)o4)c3)cn2)CC1 [tert-butyl 4-(4-(6-amino-5-(5-(pyridin-2-yl)-1,3,4-oxadiazol-2-yl)pyridin-3-yl)-1H-pyrazol-1-yl)piperidine-1-carboxylate]
17 | < 500 nM | 1000 to 10000 nM | < 500 nM | Nc1ncc(-c2cnn(C3CCN(C(=O)c4ccc(F)cc4)CC3)c2)cc1-c1ncc(-c2cccc(Cl)c2)o1 [(4-(4-(6-amino-5-(5-(3-chlorophenyl)oxazol-2-yl)pyridin-3-yl)-1H-pyrazol-1-yl)piperidin-1-yl)(4-fluorophenyl)methanone]
18 | < 500 nM | 500 to 1000 nM | < 500 nM | CCCCCCCCCCCCN1CCC(n2cc(-c3cnc(N)c(-c4ncc(-c5ccccc5)o4)c3)cn2)CC1
19 | < 500 nM | 1000 to 10000 nM | 1000 to 10000 nM | CC(C)(C)OC(=O)N1CCC(n2cc(-c3cnc(N)c(-c4nnc(-c5cnccn5)o4)c3)cn2)CC1 [tert-butyl 4-(4-(6-amino-5-(5-(pyrazin-2-yl)-1,3,4-oxadiazol-2-yl)pyridin-3-yl)-1H-pyrazol-1-yl)piperidine-1-carboxylate]
